Results from DBAASP.
Values after ≈ are worked out from the molar mass of the structure shown.

Legend:
Experiment in all cases: ≥ marks a high value that may be exact or a test limit, other limits are often not marked, values filed in µg/mL are converted to µM
[1] = test system: Pseudomonas aeruginosa PAO1
[2] = test system: Staphylococcus aureus USA 300
Escherichia coli K-12 = test system: Escherichia coli K-12
Bacillus subtilis 168 = test system: Bacillus subtilis 168
[3] = test system: Bacillus subtilis ATCC 23857
[4] = test system: Escherichia coli ATCC 25922
[5] = test system: Klebsiella pneumoniae ATCC 700603
[6] = test system: Staphylococcus aureus ATCC 25923
[7] = test system: Pseudomonas aeruginosa ATCC 9027
[8] = test system: Staphylococcus epidermidis ATCC 12228
Escherichia coli UB1005 = test system: Escherichia coli UB1005
[9] = test system: Salmonella enterica subsp. enterica serovar Typhimurium C77-31
[10] = test system: Staphylococcus aureus ATCC 29213
[11] = test system: Enterococcus faecalis ATCC 29212
[12] = test system: Salmonella enterica serovar Typhimurium
[13] = test system: Pseudomonas aeruginosa H103
[14] = test system: Staphylococcus epidermidis
Candida albicans = test system: Candida albicans
[15] = test system: Acinetobacter baumannii ATCC 19606
[16] = test system: Pseudomonas aeruginosa ATCC 27853

SMILES | MIC [3] [µM] | MIC [4] [µM] | MIC [5] [µM] | MIC [6] [µM] | MIC [8] [µM] | MIC (Escherichia coli UB1005) [µM] | other results
CC[C@H](C)[C@H](N)C(=O)N[C@@H](Cc1c[nH]c2ccccc12)C(=O)N[C@@H](CC(C)C)C(=O)N[C@H](C(=O)N[C@@H](C)C(=O)N[C@@H](CC(C)C)C(=O)N[C@@H](CCCCN)C(=O)N[C@@H](Cc1ccccc1)C(=O)N[C@@H](CC(C)C)C(=O)NCC(=O)N[C@@H](CCCCN)C(=O)N[C@@H](Cc1cnc[nH]1)C(=O)N[C@@H](C)C(=O)N[C@@H](C)C(=O)N[C@@H](CCCCN)C(=O)N[C@@H](Cc1cnc[nH]1)C(=O)N[C@@H](CC(C)C)C(=O)N[C@@H](C)C(=O)N[C@@H](CCCCN)C(=O)N[C@@H](CCC(N)=O)C(=O)N[C@@H](CCC(N)=O)C(=O)N[C@@H](CC(C)C)C(=O)N[C@@H](CO)C(=O)N[C@@H](CCCCN)C(=O)N[C@@H](CC(C)C)C(=O)O)[C@@H](C)O [IWLTALKFLGKHAAKHLAKQQLSKL] |  |  |  |  |  |  | MIC [1]: 25 µM (≈ 71.1 µg/mL); MIC [2]: 3.1 µM (≈ 8.82 µg/mL); MIC (Escherichia coli K-12): 25 µM (≈ 71.1 µg/mL); MIC (Bacillus subtilis 168): 6.25 µM (≈ 17.8 µg/mL)
CC(C)C[C@H](NC(=O)[C@H](CC(C)C)NC(=O)[C@H](CCCCN)NC(=O)[C@@H]1CCCN1C(=O)[C@H](CC(C)C)NC(=O)[C@H](CC(C)C)NC(=O)[C@H](CCCCN)NC(=O)[C@H](CC(C)C)NC(=O)[C@H](CC(C)C)NC(=O)[C@H](CO)NC(=O)CNC(=O)[C@H](Cc1ccccc1)NC(=O)[C@@H](N)Cc1ccccc1)C(N)=O [FFGSLLKLLPKLL] |  |  |  |  |  |  | MIC [1]: 70.7 µM (≈ 105 µg/mL); MIC [2]: 1.1 µM (≈ 1.64 µg/mL); MIC (Escherichia coli K-12): 12.5 µM (≈ 18.6 µg/mL); MIC (Bacillus subtilis 168): 3.12 µM (≈ 4.64 µg/mL)
CC[C@H](C)[C@H](NC(=O)CN)C(=O)N[C@H](C(=O)N[C@@H](C)C(=O)NCC(=O)N[C@H](C(=O)N[C@H](C(=O)N[C@@H](CCCCN)C(=O)N[C@H](C(=O)N[C@H](C(=O)N[C@@H](CCCCN)C(=O)N[C@@H](C)C(N)=O)[C@@H](C)CC)[C@@H](C)CC)[C@@H](C)CC)[C@@H](C)CC)[C@@H](C)CC [GIIAGIIKIIKA] | 16 (≈ 19.3 µg/mL) | > 128 |  |  |  |  | 
CC[C@H](C)[C@H](NC(=O)[C@H](CCCCN)NC(=O)[C@H](C)NC(=O)[C@H](C)NC(=O)[C@@H](NC(=O)[C@H](C)NC(=O)[C@H](CC(C)C)NC(=O)[C@H](CC(C)C)NC(=O)[C@H](C)NC(=O)[C@H](CCCCN)NC(=O)[C@H](CC(C)C)NC(=O)[C@H](CC(N)=O)NC(=O)[C@@H](N)CC(C)C)C(C)C)C(=O)N[C@@H](CC(C)C)C(N)=O [LNLKALLAVAAKIL] | 16 (≈ 23.2 µg/mL) | 8 (≈ 11.6 µg/mL) | 32 (≈ 46.4 µg/mL) | 4 (≈ 5.8 µg/mL) |  |  | MIC [7]: 32 µM (≈ 46.4 µg/mL)
CC[C@H](C)[C@H](NC(=O)[C@H](CCCCN)NC(=O)[C@H](CCCCN)NC(=O)[C@H](CC(C)C)NC(=O)[C@H](CCCN=C(N)N)NC(=O)[C@H](CC(=O)O)NC(=O)[C@H](CCCN=C(N)N)NC(=O)[C@@H](NC(=O)[C@H](CCCCN)NC(=O)[C@H](CC(=O)O)NC(=O)[C@H](CCCN=C(N)N)NC(=O)[C@H](CC(C)C)NC(=O)[C@H](CCCN=C(N)N)NC(=O)[C@H](CCCN=C(N)N)NC(=O)[C@H](Cc1ccccc1)NC(=O)[C@@H](N)CCCN=C(N)N)[C@@H](C)O)C(N)=O [RFRRLRDKTRDRLKKI] |  | > 128 |  |  | > 128 | ≥ 128 | MIC [9]: ≥ 128 µM; MIC [10]: > 128 µM; MIC [11]: > 128 µM
CC(C)C[C@H](NC(=O)[C@H](CCCN=C(N)N)NC(=O)[C@H](CCCCN)NC(=O)[C@H](Cc1c[nH]c2ccccc12)NC(=O)[C@@H](NC(=O)[C@H](CCCCN)NC(=O)[C@H](CCCCN)NC(=O)[C@H](Cc1c[nH]c2ccccc12)NC(=O)[C@H](CC(C)C)NC(=O)[C@H](CCCN=C(N)N)NC(=O)[C@@H](N)CCCN=C(N)N)[C@@H](C)O)C(=O)N[C@@H](Cc1c[nH]c2ccccc12)C(N)=O [RRLWKKTWKRLW] |  | 4 (≈ 7.02 µg/mL) |  | 16 (≈ 28.1 µg/mL) | 8 (≈ 14 µg/mL) | 4 (≈ 7.02 µg/mL) | MIC [9]: 8 µM (≈ 14 µg/mL); MIC [10]: 8 µM (≈ 14 µg/mL)
CC[C@H](C)[C@H](NC(=O)[C@@H](NC(=O)[C@H](C)NC(=O)[C@@H](NC(=O)[C@H](C)NC(=O)[C@@H](N)CCCN=C(N)N)C(C)C)C(C)C)C(=O)N[C@H](C(=O)N[C@@H](CCCN=C(N)N)C(=O)N[C@@H](CC(C)C)C(=O)N[C@@H](CCCN=C(N)N)C(=O)N[C@@H](CCCN=C(N)N)C(=O)N[C@H](C(N)=O)C(C)C)[C@@H](C)CC [RAVAVIIRLRRV] |  |  |  | 16.2 (≈ 23 µg/mL) |  | 7.74 (≈ 11 µg/mL) | MIC [12]: 7.74 µM (≈ 11 µg/mL); MIC [13]: 16.2 µM (≈ 23 µg/mL); MIC [14]: 4.22 µM (≈ 6 µg/mL); MIC (Candida albicans): 4.22 µM (≈ 6 µg/mL)
CC(C)C[C@H](NC(=O)[C@H](Cc1ccccc1)NC(=O)CN)C(=O)N[C@@H](CCCCN)C(=O)N[C@@H](CCCN=C(N)N)C(=O)N[C@@H](Cc1ccccc1)C(=O)N[C@@H](CCCCN)C(=O)N[C@H](C(=O)N[C@@H](CC(C)C)C(=O)N[C@@H](Cc1ccccc1)C(N)=O)[C@@H](C)O [GFLKRFKTLF] | ≥ 64 | 64 (≈ 80.4 µg/mL) | 128 (≈ 161 µg/mL) | 64 (≈ 80.4 µg/mL) | 8 (≈ 10 µg/mL) |  | MIC [11]: 128 µM (≈ 161 µg/mL); MIC [15]: 128 µM (≈ 161 µg/mL); MIC [16]: 8 µM (≈ 10 µg/mL)
CC(C)C[C@H](NC(=O)[C@H](CC(C)C)NC(=O)[C@H](CCCCN)NC(=O)[C@@H]1CCCN1C(=O)[C@H](CC(C)C)NC(=O)[C@H](CC(C)C)NC(=O)[C@H](CCCCN)NC(=O)[C@H](CC(C)C)NC(=O)[C@H](CC(C)C)NC(=O)[C@H](CO)NC(=O)CNC(=O)[C@H](CC(C)C)NC(=O)[C@@H](N)CC(C)C)C(N)=O [LLGSLLKLLPKLL] |  |  |  |  |  |  | MIC [1]: > 100 µM; MIC [2]: 1.1 µM (≈ 1.57 µg/mL); MIC (Escherichia coli K-12): 12.5 µM (≈ 17.7 µg/mL); MIC (Bacillus subtilis 168): 3.12 µM (≈ 4.43 µg/mL)
CC[C@H](C)[C@H](NC(=O)[C@H](CCCCN)NC(=O)[C@H](CCCCN)NC(=O)[C@H](C)NC(=O)[C@@H](NC(=O)[C@H](C)NC(=O)[C@H](CC(C)C)NC(=O)[C@H](CC(C)C)NC(=O)[C@H](CCCCN)NC(=O)[C@H](CCCCN)NC(=O)[C@H](CC(C)C)NC(=O)[C@H](CC(N)=O)NC(=O)[C@@H](N)CC(C)C)C(C)C)C(=O)N[C@@H](CC(C)C)C(N)=O [LNLKKLLAVAKKIL] | 2 (≈ 3.13 µg/mL) | 4 (≈ 6.26 µg/mL) | 4 (≈ 6.26 µg/mL) | 8 (≈ 12.5 µg/mL) |  |  | MIC [7]: 4 µM (≈ 6.26 µg/mL)
CC[C@H](C)[C@H](NC(=O)[C@H](CCCN=C(N)N)NC(=O)[C@H](CCCN=C(N)N)NC(=O)[C@H](CCCN=C(N)N)NC(=O)[C@H](CCCN=C(N)N)NC(=O)[C@@H](NC(=O)[C@@H](N)C(C)C)[C@@H](C)CC)C(=O)N[C@@H](CC(C)C)C(=O)N[C@@H](C)C(=O)N[C@@H](C)C(=O)N[C@H](C(=O)N[C@H](C(N)=O)C(C)C)C(C)C [VIRRRRILAAVV] |  |  |  | 176 (≈ 250 µg/mL) |  | ≥ 95.7 | MIC [12]: ≥ 95.7 µM; MIC [13]: ≥ 176 µM; MIC [14]: ≥ 95.7 µM; MIC (Candida albicans): 95.7 µM (≈ 136 µg/mL)
CC(C)C[C@H](NC(=O)[C@H](CC(C)C)NC(=O)[C@@H](NC(=O)[C@H](CCCCN)NC(=O)[C@H](Cc1c[nH]c2ccccc12)NC(=O)[C@H](CCCN=C(N)N)NC(=O)[C@H](CCCCN)NC(=O)[C@H](CC(C)C)NC(=O)[C@H](CC(C)C)NC(=O)CN)[C@@H](C)O)C(N)=O [GLLKRWKTLL] | ≥ 128 | 64 (≈ 78.5 µg/mL) | 64 (≈ 78.5 µg/mL) | 128 (≈ 157 µg/mL) | 16 (≈ 19.6 µg/mL) |  | MIC [11]: 256 µM (≈ 314 µg/mL); MIC [15]: 256 µM (≈ 314 µg/mL); MIC [16]: 4 µM (≈ 4.91 µg/mL)
CC[C@H](C)[C@H](NC(=O)[C@H](CCCCN)NC(=O)[C@H](CCCCN)NC(=O)[C@H](CC(C)C)NC(=O)[C@@H](NC(=O)[C@H](CCCCN)NC(=O)CNC(=O)[C@@H](NC(=O)[C@H](CCCCN)NC(=O)[C@H](CCCCN)NC(=O)[C@H](CC(C)C)NC(=O)[C@H](CCCN=C(N)N)NC(=O)[C@H](CCCCN)NC(=O)[C@H](CCCN=C(N)N)NC(=O)[C@@H](NC(=O)[C@H](CCCCN)NC(=O)[C@H](CCCCN)NC(=O)[C@H](CCCN=C(N)N)NC(=O)[C@H](CC(C)C)NC(=O)[C@H](CCCN=C(N)N)NC(=O)[C@H](CCCN=C(N)N)NC(=O)[C@H](Cc1ccccc1)NC(=O)[C@H](CCCN=C(N)N)NC(=O)CN)[C@@H](C)O)[C@@H](C)CC)C(C)C)C(N)=O [GRFRRLRKKTRKRLKKIGKVLKKI] |  | 32 (≈ 96.2 µg/mL) |  | 64 (≈ 192 µg/mL) | 32 (≈ 96.2 µg/mL) | 16 (≈ 48.1 µg/mL) | MIC [9]: ≥ 128 µM; MIC [10]: 32 µM (≈ 96.2 µg/mL)
CC(C)C[C@H](NC(=O)[C@H](C)NC(=O)[C@@H](NC(=O)[C@H](CCCCN)NC(=O)[C@H](C)NC(=O)[C@H](CCCN=C(N)N)NC(=O)[C@H](CCCCN)NC(=O)[C@H](C)NC(=O)[C@H](C)NC(=O)CN)[C@@H](C)O)C(N)=O [GAAKRAKTAL] | ≥ 512 | > 512 | > 512 | > 512 | > 512 |  | MIC [11]: > 512 µM; MIC [15]: > 512 µM; MIC [16]: > 512 µM
